Source: US20240226285A9, “IMMUNOSTIMULATORY COMPOSITIONS” (Bayer Animal Health GmbH, priority 2020, published 2024)

How the values were obtained:
NF-κB pathway = test: NF-κB dependent pathway readout (SEAP, pNPP assay) in J774-Dual reporter cell line; assay type: cell-based, murine; conditions: for activation of the NF-κB pathway (increase of SEAP levels in supernatant, normalized to protein content): FIG. 1, class C ODN, oligonucleotide-liposome complexes, 1.85 μg/mL oligonucleotide; for activation of the NF-κB pathway (increase of SEAP levels in supernatant, normalized to protein content) / activation of the NF-κB pathway (SEAP levels) compared to untreated J774-DUAL: J774-DUAL cells, 48 h
Protocol: (§1) J774-DUAL™ cells (InvivoGen, murine NF-kB & IRF Reporter macrophage-like cells) were grown in Dulbecco's minimum essential medium (DMEM) with high D-glucose content, 1 mM sodium pyruvate and 4 mM stable glutamine. DMEM was supplemented with 10% FBS, 50 μg/mL streptomycin, 50 U/mL penicillin G and 100 μg/mL Normocin™. Every other week, the culture medium was additionally supplemented with 200 μg/mL Zeocin™ and 20 μg/mL Blasticidin.
(§2) For experimental series, serum free DMEM without phenol red was prepared containing 1 mM sodium pyruvate, 4 mM L-glutamine, 50 μg/mL streptomycin, 50 U/mL penicillin G, 100 μg/mL Normocin™, 200 μg/mL Zeocin™ and 20 μg/mL Blasticidin. J774-DUAL™ cell line was split once per week with a splitting ratio of 1:4.
(§3) J774-DUAL™ cells were cultivated in a Heracell™ 150 incubator (Thermo Scientific) at 37° C. with 5% C02 and 95% humidified air. For seeding, cells were counted using a Neubauer bright line hemocytometer (Marienfeld) with a volume 0.1 mm^3. Cell lines were regularly checked for absence of mycoplasmic contamination.
J774-Dual™ is a reporter cell line provided by Invivogen, which enables the simultaneous investigation of signal transduction resulting in the activation of the NF-κB and/or the IRF pathway.
J774-Dual™ cells express secreted embryonic alkaline phosphatase (SEAP) under the control of the NF-κB pathway. SEAP is secreted into the cell culture supernatant. Thus, a semi-quantitative analysis of NF-κB activation is possible (Invivogen product information (“J774-Dual Cells|NF-κB & IRF/IFN Reporter Macrophage” n.d., 774)). p-Nitrophenyl phosphate (pNPP) is a widely utilized chromogenic chemical for rapid determination of alkaline phosphatase activity. In the presence of alkaline phosphatase the substance is hydrolyzed into phosphate and the yellow para-Nitrophenol which can be measured spectrophotometrically (Bessey, Otto A., O. H. Lowky, and Mary Jane Brock. “A method for the rapid determination of alkaline phosphatase with five cubic millimeters of serum.” Journal of Biological Chemistry 164 (1946): 321-329.).
Cells were seeded with a density of 1×10^5 cells per well into 96-well microplates and given 24 h for adherence. The culture medium was removed and the cells were incubated with either naked CpG nucleic acids, liposomes or liposome-nucleic acid complexes in serum-free medium at 37° C. with 5% CO2 and 95% humidified air (Heracell™ 150, Thermo Scientific). Liposome with a LC20>40 μM were included in the experimental series. After 48 h of incubation 100 μL supernatant of each sample were transferred into 96-well microplates (SpectraPlate™-96 TC, Perkin Elmer) and analyzed spectrophotometrically using a p-Nitrophenyl phosphate assay.
To this end, 100 μL pNPP working reagent consisting of 20 mM pNPP in 50 mM NaHCO3 buffer (pH 9.6) were added to each well containing samples, controls or calibration standards. After the incubation of the mixture at 37° C. for 1 h, absorbance was determined using Victor3™ V multimode plate reader (Perkin Elmer) equipped with a 405 nm absorbance filter. Lipopolysaccharide from Salmonella anterica serotype Minnesota was applied as calibration standard to determine the linear range of the assay and as positive control. All experiments were conducted in triplicate.
Raw data was normalized to 10 μg/mL protein content and the average value of the untreated control was subtracted.

IRF pathway = test: Interferon regulatory factor (IRF) pathway readout (Lucia luciferase, QUANTI-Luc) in J774-Dual reporter cell line; assay type: cell-based, murine; conditions: ODN complexed with liposomes comprising DOTAP+DOPE, DOTMA+DOPE or DDA+DOPE; 40 μM liposomal lipids, 1.85 μg/mL ODN; J774-DUAL cells, 48 h
Protocol: as §1, §2
as §3, with “contamination. […]” for “contamination.”
J774-Dual™ cells also express the Lucia luciferase gene under the control of the IRF pathway. […] By using QUANTI-Luc™ reagent, a semi-quantitative analysis of IRF activation is thus possible (Invivogen product information (“J774-Dual Cells|NF-κB & IRF/IFN Reporter Macrophage” n.d., 774).
Cells were seeded with a density of 1×10^5 cells per well into 96-well microplates and given 24 h for adherence. […] After 48 h of incubations, 50 μL supernatant of each sample were transferred into 96-well microplates (OptiPlate™-96 HS, Perkin Elmer) and analyzed using QUANTI-Luc™ luminescence assay according to the manufacturer's instructions.
QUANTI-Luc™ reagent was dissolved in 25 mL endotoxin-free water, and 50 μL were added to each well containing samples, controls or calibration standards. Luminescence was immediately determined using EnSpire® multimode plate reader (Perkin Elmer) and measured as relative light units (RLU). […]

Substance	activation of the NF-κB pathway (increase of SEAP levels in supernatant, normalized to protein content) (NF-κB pathway; 40 μM liposomal lipids)	activation of the IRF pathway (increase of luciferase levels in supernatant, normalized to protein content) (IRF pathway)	activation of the NF-κB pathway (SEAP levels) compared to untreated J774-DUAL (NF-κB pathway; FIG. 3, ODN complexed with liposomes, 40 μM liposomal lipids, 1.85 μg/mL ODN)	immunostimulatory potency (NF-κB pathway) of complexes compared to the uncomplexed ODN (NF-κB pathway; FIG. 3, all liposome complexes except those with liposomes comprising DOTMA+DOPE, 40 μM lipids, 1.85 μg/mL ODN)	activation of the NF-κB pathway (SEAP levels) compared to untreated J774-DUAL (NF-κB pathway; FIG. 3, uncomplexed (naked) ODN 1.85 μg/mL)
ODN 2395: class C immunostimulatory CpG oligonucleotide, SEQ ID NO. 1 (TCGTCGTTTTCGGCGCGCGCCG; listed as DNA, chemistry not given here)	potent NF-κB pathway activation was not observed	potent IRF pathway activation was observed			
ODN M362: class C immunostimulatory CpG oligonucleotide, SEQ ID NO. 2 (TCGTCGTCGTTCGAACGACGTTGAT; listed as DNA, chemistry not given here)	potent NF-κB pathway activation was not observed	potent IRF pathway activation was observed			
ODN 1668: class B immunostimulatory CpG oligonucleotide, SEQ ID NO. 3 (DNA TCCATGACGTTCCTGATGCT; listed as DNA, chemistry not given here)		potent IRF pathway activation was observed	increased NF-κB pathway activation	not significantly improved	increased NF-κB pathway activation
